Assay results from PMC7955127, “Preclinical small molecule WEHI-7326 overcomes drug resistance and elicits response in patient-derived xenograft models of human treatment-refractory tumors” (Cell Death & Disease, 2021).

Test: Acute toxicity study, single intravenous dose (non-GLP)
Assay type: in vivo, Sprague-Dawley rats
Conditions: for Lung - focal red areas medial right lobe (2 mm diameter) (incidence at necropsy) / Lung - haemorrhagic area right caudal lobe (1mm diameter) (incidence at necropsy) / Multifocal red petechiae on all lung lobes (incidence at necropsy) / Pale yellow liver (minimal) (incidence at necropsy) / ALP / ALT / APTT / AST / Albumin / Albumin/Globulin / Bilirubin (Total) / Calcium / Chloride / Cholesterol / Creatinine / Globulin / Glucose / HCT / HGB / MCH / MCHC / MCV / PLT / PT / Phosphate / Potassium / Protein (Total) / RBC / Retc. / Sodium / Triglycerides / Urea / WBC / Smaller right teste (incidence at necropsy) / Testes noted to have a soft consistency (incidence at necropsy) / White streaks though one or both testes (incidence at necropsy): day 15; for ALP / ALT / APTT / AST / Albumin / Albumin/Globulin / Bilirubin (Total) / Calcium / Chloride / Cholesterol / Creatinine / Globulin / Glucose / HCT / HGB / MCH / MCHC / MCV / PLT / PT / Phosphate / Potassium / Protein (Total) / RBC / Retc. / Sodium / Triglycerides / Urea / WBC: mean ± SD
Protocol: This acute toxicity study included a satellite group for toxicokinetic assessment. The toxicity study was comprised of 12 male and 12 female rats, which were allocated into four groups of three males and three females. The toxicity of the test substance, WEHI-7326 dihydrochloride (referred to as WEHI-7326 from here), was tested at three dose concentrations of 5 mg/kg, 15 mg/kg and 30 mg/kg administered as a single dose via intravenous tail vein injection. The vehicle control, D-(+)-Glucose, was formulated at 5% w/v and administered per the above regime. On Study Day 15, all animals were terminated with blood collected for biochemistry, haematology and coagulation analysis before undergoing gross necropsy by a US board certified veterinary pathologist. The toxicokinetic satellite group comprised of 30 male rats which were allocated into four groups of three males in the vehicle control group and nine males in each of the three treatment groups. All treatment group animals were then allocated into three subgroups (A, B and C) and bled pre-dose, then 2min, 10min, 0.5h, 2h, 6h, 12h and 24h post-dose. All vehicle control group animals weren’t allocated to a specific subgroup but were bled at 10min and 12h post-dose. All TK animals were then terminated after the final blood collection. Dosing was suspended on Study Day 1 for both the Toxicity and Toxicokinetic Study animals following adverse reactions which lead to the early termination of two animals (one male treated with mid-dose WEHI-7326 from the Toxicity Study and one male treated with high-dose WEHI-7326 from the Toxicokinetic Study) approximately 5-10 minutes post-treatment. After consultation with the Sponsor, the following changes were made to the Study Design:
At the revised high dose of 20mg/kg, all male rats had to be terminated prematurely also due to reaching their body weight loss endpoint of >10% loss. […] Significant findings in clinical pathology outcomes were considered incidental and unrelated to test article treatment. The majority of macroscopic findings at necropsy were also considered to be incidental, however the findings of white streaks through the testes of male animals treated with WEHI-7326 may be related to treatment. Body weights were measured once prior to dose administration, then daily for the duration of the study and at termination. Clinical observations were performed on a daily basis.
The study followed test guideline OECD No. 420 (2001) “Acute Oral Toxicity - Fixed Dose Procedure” with the exception that the route of administration was intravenous (i.v.).

[1] = female rats, 5 mg/kg single i.v.
[2] = female rats, 15 mg/kg single i.v.
[3] = female rats, 20 mg/kg single i.v.
[4] = male rats, 15 mg/kg single i.v.
[5] = male rats, 20 mg/kg single i.v.

## COc1ccc(CNc2nc(NCc3ccc(CN)cc3)nc(NN3CC(=O)NC3=O)n2)cc1 [WEHI-7326]
[1]
  Body weight loss >10% (termination required) (incidence): 0/3
  Mild fur loss around both eyes from Study Day 10 to 15 (incidence): 0/3
  Mild impairment of gait and lack of response to stimuli up to 10 minutes post-dose (incidence): 0/3
  No remarkable observations (incidence): 3/3
  Lung - focal red areas medial right lobe (2 mm diameter) (incidence at necropsy): 0/3
  Lung - haemorrhagic area right caudal lobe (1mm diameter) (incidence at necropsy): 0/3
  Multifocal red petechiae on all lung lobes (incidence at necropsy): 1/3
  Pale yellow liver (minimal) (incidence at necropsy): 1/3
  ALP: 286 ± 65 U/L
  ALT: 54 ± 11 U/L
  APTT: 17.2 ± 1.9 s
  AST: 93 ± 13 U/L
  Albumin: 37.3 ± 3.1 g/L
  Albumin/Globulin: 1.6 ± 0.4 Ratio
  Bilirubin (Total): 0.8 ± 0.1 µM
  Calcium: 2.59 ± 0.07 mM
  Chloride: 102.4 ± 0.5 mM
  Cholesterol: 1.98 ± 0.21 mM
  Creatinine: 30 ± 3 µM
  Globulin: 23.7 ± 3.4 g/L
  Glucose: 7.57 ± 0.07 mM
  HCT: 0.45 ± 0.01 L/L
  HGB: 137.3 ± 4.9 g/L
  MCH: 18.87 ± 0.45 pg
  MCHC: 303.0 ± 4.4 g/L
  MCV: 62.3 ± 0.9 fL
  PLT: 1080.0 ± 206.7 10^9/L
  PT: 21.9 ± 1.0 s
  Phosphate: 1.75 ± 0.14 mM
  Potassium: 5.30 ± 0.14 mM
  Protein (Total): 61.0 ± 0.4 g/L
  RBC: 7.27 ± 0.14 10^12/L
  Retc.: 3.76 ± 0.62%
  Sodium: 138 ± 1 mM
  Triglycerides: 0.86 ± 0.29 mM
  Urea: 6.56 ± 1.18 mM
  WBC: 11.28 ± 4.18 10^9/L
[2]
  Body weight loss >10% (termination required) (incidence): 2/3
  Mild fur loss around both eyes from Study Day 10 to 15 (incidence): 0/3
  Mild impairment of gait and lack of response to stimuli up to 10 minutes post-dose (incidence): 0/3
  No remarkable observations (incidence): 1/3
  Lung - focal red areas medial right lobe (2 mm diameter) (incidence at necropsy): 0/1
  Lung - haemorrhagic area right caudal lobe (1mm diameter) (incidence at necropsy): 0/1
  Multifocal red petechiae on all lung lobes (incidence at necropsy): 0/1
  Pale yellow liver (minimal) (incidence at necropsy): 0/1
  ALP: 218 ± 0 U/L
  ALT: 55 ± 0 U/L
  APTT: 18.6 ± 0.0 s
  AST: 73 ± 0 U/L
  Albumin: 37.7 ± 0 g/L
  Albumin/Globulin: 1.3 ± 0 Ratio
  Bilirubin (Total): 1.0 ± 0 µM
  Calcium: 2.48 ± 0 mM
  Chloride: 102.5 ± 0 mM
  Cholesterol: 1.59 ± 0 mM
  Creatinine: 27 ± 0 µM
  Globulin: 28.8 ± 0 g/L
  Glucose: 7.31 ± 0 mM
  HCT: 0.45 ± 0.00 L/L
  HGB: 136.0 ± 0.0 g/L
  MCH: 18.70 ± 0.00 pg
  MCHC: 306.0 ± 0.0 g/L
  MCV: 60.90 ± 0.0 fL
  PLT: 970.0 ± 0.0 10^9/L
  PT: 19.9 ± 0.0 s
  Phosphate: 1.53 ± 0 mM
  Potassium: 4.53 ± 0 mM
  Protein (Total): 66.5 ± 0 g/L
  RBC: 7.31 ± 0.00 10^12/L
  Retc.: 4.52 ± 0.00%
  Sodium: 140 ± 0 mM
  Triglycerides: 0.76 ± 0 mM
  Urea: 6.91 ± 0 mM
  WBC: 10.28 ± 0.00 10^9/L
[3]
  Body weight loss >10% (termination required) (incidence): 0/3
  Mild fur loss around both eyes from Study Day 10 to 15 (incidence): 1/3
  Mild impairment of gait and lack of response to stimuli up to 10 minutes post-dose (incidence): 1/3
  No remarkable observations (incidence): 2/3
  Lung - focal red areas medial right lobe (2 mm diameter) (incidence at necropsy): 1/3
  Lung - haemorrhagic area right caudal lobe (1mm diameter) (incidence at necropsy): 1/3
  Multifocal red petechiae on all lung lobes (incidence at necropsy): 0/3
  Pale yellow liver (minimal) (incidence at necropsy): 0/3
  ALP: 171 ± 38 U/L
  ALT: 70 ± 9 U/L
  APTT: 17.3 ± 1.0 s
  AST: 93 ± 14 U/L
  Albumin: 36.5 ± 1.1 g/L
  Albumin/Globulin: 1.3 ± 0.1 Ratio
  Bilirubin (Total): 1.2 ± 0.3 µM
  Calcium: 2.71 ± 0.12 mM
  Chloride: 100.5 ± 0.7 mM
  Cholesterol: 2.16 ± 0.31 mM
  Creatinine: 38 ± 5 µM
  Globulin: 27.9 ± 1.2 g/L
  Glucose: 7.29 ± 0.68 mM
  HCT: 0.46 ± 0.01 L/L
  HGB: 134.3 ± 3.2 g/L
  MCH: 18.53 ± 0.84 pg
  MCHC: 290.7 ± 1.5 g/L
  MCV: 63.7 ± 2.5 fL
  PLT: 957.0 ± 63.5 10^9/L
  PT: 21.8 ± 0.8 s
  Phosphate: 1.85 ± 0.15 mM
  Potassium: 4.72 ± 0.20 mM
  Protein (Total): 64.3 ± 1.2 g/L
  RBC: 7.27 ± 0.15 10^12/L
  Retc.: 4.75 ± 1.82%
  Sodium: 139 ± 1 mM
  Triglycerides: 0.96 ± 0.50 mM
  Urea: 6.37 ± 0.39 mM
  WBC: 7.85 ± 1.07 10^9/L
Male rats, 5 mg/kg single i.v.
  Body weight loss >10% (termination required) (incidence): 0/3
  Discharge from nose on study day 2 (incidence): 0/3
  Hunched posture with half shut eyes on Study Day 3 (incidence): 0/3
  Labored breathing, severely affected gait and lack of response to stimuli post-dose (termination required) (incidence): 0/3
  Mild impairment of gait and lack of response to stimuli postdose, resolved 2 hours post treatment (incidence): 0/3
  No remarkable observations (incidence): 3/3
  Red stained right eye on study day 2 and 3 (incidence): 0/3
  Multifocal red petechiae on all lung lobes (incidence at necropsy): 0/3
  Smaller right teste (incidence at necropsy): 1/3
  Testes noted to have a soft consistency (incidence at necropsy): 0/3
  White streaks though one or both testes (incidence at necropsy): 3/3
  ALP: 528 ± 112 U/L
  ALT: 66 ± 17 U/L
  APTT: 16.8 ± 1.3 s
  AST: 114 ± 16 U/L
  Albumin: 36.6 ± 4.1 g/L
  Albumin/Globulin: 1.4 ± 0.2 Ratio
  Bilirubin (Total): 0.4 ± 0.1 µM
  Calcium: 2.67 ± 0.12 mM
  Chloride: 102.9 ± 5.3 mM
  Cholesterol: 1.81 ± 0.18 mM
  Creatinine: 25 ± 5 µM
  Globulin: 25.3 ± 1.6 g/L
  Glucose: 7.70 ± 0.82 mM
  HCT: 0.52 ± 0.01 L/L
  HGB: 151.7 ± 3.1 g/L
  MCH: 19.70 ± 0.85 pg
  MCHC: 294.0 ± 5.0 g/L
  MCV: 67.2 ± 3.5 fL
  PLT: 1025.0 ± 167.5 10^9/L
  PT: 19.5 ± 0.3 s
  Phosphate: 2.07 ± 0.24 mM
  Potassium: 5.23 ± 0.33 mM
  Protein (Total): 61.9 ± 5.8 g/L
  RBC: 7.71 ± 0.45 10^12/L
  Retc.: 4.57 ± 1.00%
  Sodium: 143 ± 10 mM
  Triglycerides: 1.65 ± 0.18 mM
  Urea: 6.11 ± 0.96 mM
  WBC: 14.83 ± 1.08 10^9/L
[4]
  Body weight loss >10% (termination required) (incidence): 2/4
  Discharge from nose on study day 2 (incidence): 0/4
  Hunched posture with half shut eyes on Study Day 3 (incidence): 0/4
  Labored breathing, severely affected gait and lack of response to stimuli post-dose (termination required) (incidence): 1/4
  Mild impairment of gait and lack of response to stimuli postdose, resolved 2 hours post treatment (incidence): 0/4
  No remarkable observations (incidence): 1/4
  Red stained right eye on study day 2 and 3 (incidence): 1/4
  Multifocal red petechiae on all lung lobes (incidence at necropsy): 0/1
  Smaller right teste (incidence at necropsy): 0/1
  Testes noted to have a soft consistency (incidence at necropsy): 1/1
  White streaks though one or both testes (incidence at necropsy): 1/1
  ALP: 306 ± 0 U/L
  ALT: 61 ± 0 U/L
  APTT: 20.2 ± 0.0 s
  AST: 108 ± 0 U/L
  Albumin: 32.3 ± 0 g/L
  Albumin/Globulin: 1.3 ± 0 Ratio
  Bilirubin (Total): 0.9 ± 0 µM
  Calcium: 2.50 ± 0 mM
  Chloride: 100.4 ± 0 mM
  Cholesterol: 1.65 ± 0 mM
  Creatinine: 23 ± 0 µM
  Globulin: 25.8 ± 0 g/L
  Glucose: 7.13 ± 0 mM
  HCT: 0.46 ± 0.00 L/L
  HGB: 138.0 ± 0.0 g/L
  MCH: 18.00 ± 0.00 pg
  MCHC: 297.0 ± 0.0 g/L
  MCV: 60.40 ± 0.0 fL
  PLT: 1075 ± 0.0 10^9/L
  PT: 18.4 ± 0.0 s
  Phosphate: 2.07 ± 0 mM
  Potassium: 4.78 ± 0 mM
  Protein (Total): 58.1 ± 0 g/L
  RBC: 7.68 ± 0.00 10^12/L
  Retc.: 2.70 ± 0.00%
  Sodium: 138 ± 0 mM
  Triglycerides: 0.97 ± 0 mM
  Urea: 4.02 ± 0 mM
  WBC: 10.89 ± 0.00 10^9/L
[5]
  Body weight loss >10% (termination required) (incidence): 3/3
  Discharge from nose on study day 2 (incidence): 3/3
  Hunched posture with half shut eyes on Study Day 3 (incidence): 3/3
  Labored breathing, severely affected gait and lack of response to stimuli post-dose (termination required) (incidence): 0/3
  Mild impairment of gait and lack of response to stimuli postdose, resolved 2 hours post treatment (incidence): 3/3
  No remarkable observations (incidence): 0/3
  Red stained right eye on study day 2 and 3 (incidence): 0/3
  Multifocal red petechiae on all lung lobes (incidence at necropsy): 0/0
  Smaller right teste (incidence at necropsy): 0/0
  Testes noted to have a soft consistency (incidence at necropsy): 0/0
  White streaks though one or both testes (incidence at necropsy): 0/0
